{
  "source": "patent US9926321B2",
  "about": "“Hsp90 inhibitors” (Sloan-Kettering Institute for Cancer Research, priority 2011, dated 2018)",
  "key": {"Hsp90 (SKBr3 lysate)": {"test_system": "Hsp90 (SKBr3 lysate)", "experiment": "Hsp90 binding assay (fluorescence polarization, cy3B-GM displacement), human cancer cell lysate", "settings": "lysate not given", "description": "(§1) For the binding studies, fluorescence polarization (FP) assays w-re performed similarly as was previously reported [Du et al. (2007) “High-throughput screening fluorescence polarization assay for tumor-specific Hsp90” J. Biomol. Screen 12:915-924]. Briefly, FP measurements were performed on an Analyst GT instrument (Molecular Devices, Sunnyvale, Calif.). Measurements were taken in black 96-well microtiter plates (Corning #3650) where both the excitation and the emission occurred from the top of the well. A stock of 10 μM cy3B-GM was prepared in DMSO and diluted with HFB buffer (20 mM Hepes (K), pH 7.3, 50 mM KCl, 2 mM DTT, 5 mM MgCl2, 20 mM Na2MoO4, and 0.01% NP40 with 0.1 mg/mL BGG). The test compounds were dissolved in DMSO and added at several concentrations to the HFB assay buffer containing both 6 nM cy3B-GM and transgenic mouse brain lysate (6 μg JNPL3 lysate) or human cancer cell lysate (3 μg SKBr3 lysate) in a final volume of 100 μL. Drugs were added to triplicate wells. Free cy3B-GM (6 nM cy3B-GM), bound cy3B-GM (6 nM cy3B-GM+lysate, as indicated above) and buffer only containing wells (background) were included as controls in each plate. Plates were incubated on a shake at 4° C., and polarization values measured at 24 h. Percentage inhibition was calculated as follows: (% Control)=100−((mPc−mPf)/(mPb−mPf))×100, where mPc is the recorded mP from compound wells, mPf is the average recorded mP from cy3B-GM-only wells, and mPb is the average recorded mP from wells containing both cy3B-GM and lysate, and plotted against values of competitor concentrations. The inhibitor concentration at which 50% of bound cy3B-GM was displaced was obtained by fitting the data using a nonlinear regression analysis as implemented in Prism 4.0 (GraphPad Software)."}, "Hsp90": {"test_system": "Hsp90", "experiment": "Hsp90 binding assay (fluorescence polarization, cy3B-GM displacement), human cancer cell lysate", "settings": "fluorescence polarization, cy3B-GM displacement; the table does not say which lysate (SKBr3 or JNPL3)", "description": "as §1"}},
  "data": [
    {"smiles": "CC(C)(C)NS(=O)(=O)CCn1c(Sc2cc3c(cc2I)OCO3)nc2c(N)ncnc21", "note": "[Compound 1A-5, 2-[6-Amino-8-(6-iodo-benzo[1,3]dioxol-5-ylsulfanyl)-purin-9-yl]-ethanesulfonic acid tert-butylamide]", "values": [
      {"measurement": "Hsp90 binding affinity (in words, referring to Table 12)", "setting": "Hsp90 (SKBr3 lysate)", "value": "high level of binding affinity"},
      {"measurement": "IC50", "setting": "Hsp90", "value": 78, "unit": "nM"}
    ]},
    {"smiles": "CS(=O)(=O)NCCn1c(Sc2cc3c(cc2I)OCO3)nc2c(N)ncnc21", "note": "[Compound 1A-10, N-{2-[6-Amino-8-(6-iodo-benzo[1,3]dioxol-5-ylsulfanyl)-purin-9-yl]-ethyl}-methanesulfonamide]", "values": [
      {"measurement": "Hsp90 binding affinity (in words, referring to Table 12)", "setting": "Hsp90 (SKBr3 lysate)", "value": "high level of binding affinity"},
      {"measurement": "IC50", "setting": "Hsp90", "value": 6.3, "unit": "nM"}
    ]},
    {"smiles": "CC(C)(C)S(=O)(=O)NCCn1c(Sc2cc3c(cc2I)OCO3)nc2c(N)ncnc21", "note": "[Compound 1A-11, 2-Methyl-propane-2-sulfonic acid {2-[6-amino-8-(6-iodo-benzo[1,3]dioxol-5-ylsulfanyl)-purin-9-yl]-ethyl}-amide]", "values": [
      {"measurement": "Hsp90 binding affinity (in words, referring to Table 12)", "setting": "Hsp90 (SKBr3 lysate)", "value": "high level of binding affinity"},
      {"measurement": "IC50", "setting": "Hsp90", "value": 71.5, "unit": "nM"}
    ]},
    {"smiles": "CC(C)(C)NS(=O)(=O)CCCn1c(Sc2cc3c(cc2I)OCO3)nc2c(N)ncnc21", "note": "[Compound 1A-19, 3-[6-Amino-8-(6-iodo-benzo[1,3]dioxol-5-ylsulfanyl)-purin-9-yl]-propane-1-sulfonic acid tert-butylamide]", "values": [
      {"measurement": "Hsp90 binding affinity (in words, referring to Table 12)", "setting": "Hsp90 (SKBr3 lysate)", "value": "high level of binding affinity"},
      {"measurement": "IC50", "setting": "Hsp90", "value": 44, "unit": "nM"}
    ]},
    {"smiles": "CS(=O)(=O)NCCCn1c(Sc2cc3c(cc2I)OCO3)nc2c(N)ncnc21", "note": "[Compound 1A-24, N-{3-[6-Amino-8-(6-iodo-benzo[1,3]dioxol-5-ylsulfanyl)-purin-9-yl]-propyl}-methanesulfonamide]", "values": [
      {"measurement": "Hsp90 binding affinity (in words, referring to Table 12)", "setting": "Hsp90 (SKBr3 lysate)", "value": "high level of binding affinity"},
      {"measurement": "IC50", "setting": "Hsp90", "value": 11.5, "unit": "nM"}
    ]},
    {"smiles": "CC(C)(C)S(=O)(=O)NCCCn1c(Sc2cc3c(cc2I)OCO3)nc2c(N)ncnc21", "note": "[Compound 1A-25, 2-Methyl-propane-2-sulfonic acid {3-[6-amino-8-(6-iodo-benzo[1,3]dioxol-5-ylsulfanyl)-purin-9-yl]-propyl}-amide]", "values": [
      {"measurement": "IC50", "setting": "Hsp90", "value": 24, "unit": "nM"}
    ]},
    {"smiles": "CC(C)CS(=O)(=O)NCCCn1c(Sc2cc3c(cc2I)OCO3)nc2c(N)ncnc21", "note": "[Compound 1A-27, 2-Methyl-propane-1-sulfonic acid {3-[6-amino-8-(6-iodo-benzo[1,3]dioxol-5-ylsulfanyl)-purin-9-yl]-propyl}-amide]", "values": [
      {"measurement": "IC50", "setting": "Hsp90", "value": 64, "unit": "nM"}
    ]},
    {"smiles": "Nc1ncnc2c1nc(Sc1cc3c(cc1I)OCO3)n2CCCNS(=O)(=O)C1CC1", "note": "[Compound 1A-28, Cyclopropanesulfonic acid {3-[6-amino-8-(6-iodo-benzo[1,3]dioxol-5-ylsulfanyl)-purin-9-yl]-propyl}-amide]", "values": [
      {"measurement": "IC50", "setting": "Hsp90", "value": 19.7, "unit": "nM"}
    ]},
    {"smiles": "CC(C)C(=O)NCCCn1c(Sc2cc3c(cc2I)OCO3)nc2c(N)ncnc21", "note": "[Compound 1A-44, N-(3-(6-Amino-8-((6-iodobenzo[d][1,3]dioxol-5-yl)thio)-9H-purin-9-yl)propyl)isobutyramide]", "values": [
      {"measurement": "IC50", "setting": "Hsp90", "value": 68, "unit": "nM"}
    ]},
    {"smiles": "CC(=O)OC(C)(C)C(=O)NCCCn1c(Sc2cc3c(cc2I)OCO3)nc2c(N)ncnc21", "note": "[Compound 1A-47, 1-((3-(6-Amino-8-((6-iodobenzo[d][1,3]dioxol-5-yl)thio)-9H-purin-9-yl)propyl)amino)-2-methyl-1-oxopropan-2-yl acetate]", "values": [
      {"measurement": "IC50", "setting": "Hsp90", "value": 16.5, "unit": "nM"}
    ]},
    {"smiles": "COc1ccc(I)c(Sc2nc3c(N)ncnc3n2CCCNC(=O)C(C)(C)C)c1", "note": "[Compound 1A-49, N-(3-(6-amino-8-((2-iodo-5-methoxyphenyl)thio)-9H-purin-9-yl)propyl)pivalamide]", "values": [
      {"measurement": "IC50", "setting": "Hsp90", "value": 28.3, "unit": "nM"}
    ]},
    {"smiles": "NC(=O)CCCCCn1c(Sc2cc3c(cc2I)OCO3)nc2c(N)ncnc21", "note": "[Compound 1A-50, 6-(6-amino-8-((6-iodobenzo[d][1,3]dioxol-5-yl)thio)-9H-purin-9-yl)hexanamide]", "values": [
      {"measurement": "IC50", "setting": "Hsp90", "value": 76.5, "unit": "nM"}
    ]},
    {"smiles": "CN(C)c1cc2c(cc1Sc1nc3c(N)ncnc3n1CCCNS(=O)(=O)C1CC1)OCO2", "note": "[Compound 1G-28, N-(3-(6-amino-8-((6-(dimethylamino)benzo[d] [1,3]dioxol-5-yl)thio)-9H-purin-9-yl)propyl)cyclopropane-sulfonamide]", "values": [
      {"measurement": "Hsp90 binding affinity (in words, referring to Table 12)", "setting": "Hsp90 (SKBr3 lysate)", "value": "high level of binding affinity"},
      {"measurement": "IC50", "setting": "Hsp90", "value": 22, "unit": "nM"}
    ]},
    {"smiles": "CC(C)(C)S(=O)(=O)NCCn1c(Sc2cc3c(cc2I)CCO3)nc2c(N)ncnc21", "note": "[Compound 2A-11, 2-Methyl-propane-2-sulfonic acid {2-[6-amino-8-(5-iodo-2,3-dihydro-benzofuran-6-ylsulfanyl)-purin-9-yl]-ethyl}-amide]", "values": [
      {"measurement": "Hsp90 binding affinity (in words, referring to Table 12)", "setting": "Hsp90 (SKBr3 lysate)", "value": "high level of binding affinity"},
      {"measurement": "IC50", "setting": "Hsp90", "value": 51, "unit": "nM"}
    ]},
    {"smiles": "CC(C)(C)[S+]([O-])NCCn1c(Sc2cc3c(cc2I)CCO3)nc2c(N)ncnc21", "note": "(centres unmarked) [Compound 2A-12, 2-Methyl-propane-2-sulfinic acid {2-[6-amino-8-(5-iodo-2,3-dihydro-benzofuran-6-ylsulfanyl)-purin-9-yl]-ethyl}-amide]", "values": [
      {"measurement": "Hsp90 binding affinity (in words, referring to Table 12)", "setting": "Hsp90 (SKBr3 lysate)", "value": "high level of binding affinity"},
      {"measurement": "IC50", "setting": "Hsp90", "value": 68, "unit": "nM"}
    ]},
    {"smiles": "CC(C)(C)[S+]([O-])NCCCn1c(Sc2cc3c(cc2I)CCO3)nc2c(N)ncnc21", "note": "(centres unmarked) [Compound 2A-26, 2-Methyl-propane-2-sulfinic acid {3-[6-amino-8-(5-iodo-2,3-dihydro-benzofuran-6-ylsulfanyl)-purin-9-yl]-propyl}-amide]", "values": [
      {"measurement": "Hsp90 binding affinity (in words, referring to Table 12)", "setting": "Hsp90 (SKBr3 lysate)", "value": "high level of binding affinity"},
      {"measurement": "IC50", "setting": "Hsp90", "value": 17, "unit": "nM"}
    ]},
    {"smiles": "Nc1ncnc2c1nc(Sc1cc3c(cc1I)CCO3)n2CCCNC(=O)C1CC1", "note": "[Compound 2A-45, Cyclopropanecarboxylic acid {3-[6-amino-8-(5-iodo-2,3-dihydro-benzufuran-6-ylsulfanyl)-purin-9-yl]-propyl}-amide]", "values": [
      {"measurement": "Hsp90 binding affinity (in words, referring to Table 12)", "setting": "Hsp90 (SKBr3 lysate)", "value": "high level of binding affinity"},
      {"measurement": "IC50", "setting": "Hsp90", "value": 11.8, "unit": "nM"}
    ]},
    {"smiles": "CS(=O)(=O)NCCn1c(Sc2cc3c(cc2I)CCC3)nc2c(N)ncnc21", "note": "[Compound 3A-10, N-{2-[6-Amino-8-(6-iodo-indan-5-ylsulfanyl)-purin-9-yl]-ethyl}-methanesulfonamide]", "values": [
      {"measurement": "Hsp90 binding affinity (in words, referring to Table 12)", "setting": "Hsp90 (SKBr3 lysate)", "value": "high level of binding affinity"},
      {"measurement": "IC50", "setting": "Hsp90", "value": 3.5, "unit": "nM"}
    ]},
    {"smiles": "CC(C)(C)S(=O)(=O)NCCn1c(Sc2cc3c(cc2I)CCC3)nc2c(N)ncnc21", "note": "[Compound 3A-11, 2-Methyl-propane-2-sulfonic acid {2-[6-amino-8-(6-iodo-indan-5-ylsulfanyl)-purin-9-yl]-ethyl}-amide]", "values": [
      {"measurement": "Hsp90 binding affinity (in words, referring to Table 12)", "setting": "Hsp90 (SKBr3 lysate)", "value": "high level of binding affinity"},
      {"measurement": "IC50", "setting": "Hsp90", "value": 68, "unit": "nM"}
    ]},
    {"smiles": "CC(C)(C)[S+]([O-])NCCn1c(Sc2cc3c(cc2I)CCC3)nc2c(N)ncnc21", "note": "(centres unmarked) [Compound 3A-12, 2-Methyl-propane-2-sulfinic acid {2-[6-amino-8-(6-iodo-indan-5-ylsulfanyl)-purin-9-yl]-ethyl}-amide]", "values": [
      {"measurement": "Hsp90 binding affinity (in words, referring to Table 12)", "setting": "Hsp90 (SKBr3 lysate)", "value": "high level of binding affinity"}
    ]},
    {"smiles": "CS(=O)(=O)NCCCn1c(Sc2cc3c(cc2I)CCC3)nc2c(N)ncnc21", "note": "[Compound 3A-24, N-{3-[6-Amino-8-(6-iodo-indan-5-ylsulfanyl)-purin-9-yl]-propyl}-methanesulfonamide]", "values": [
      {"measurement": "Hsp90 binding affinity (in words, referring to Table 12)", "setting": "Hsp90 (SKBr3 lysate)", "value": "high level of binding affinity"},
      {"measurement": "IC50", "setting": "Hsp90", "value": 8.1, "unit": "nM"}
    ]},
    {"smiles": "CC(C)(C)[S+]([O-])NCCn1c(Cc2cc3c(cc2I)OCO3)nc2c(N)nc(F)nc21", "note": "(centres unmarked) [Compound 4A-12, N-(2-(6-amino-2-fluoro-8-((6-iodobenzo[d][1,3]dioxol-5-yl)methyl)-9H-purin-9-yl)ethyl)-2-methylpropane-2-sulfinamide]", "values": [
      {"measurement": "IC50", "setting": "Hsp90", "value": 29.6, "unit": "nM"}
    ]}
  ]
}
